Results published in PubChem BioAssay AID1963958 (Molecular Pharmacology Branch, DTP, NCI, 2024).
Values belong to the compound of their own block, whether it stands above or below them.

Test system: MDA-MB-231 multicell spheroids, viability
Assay: Anticancer human tumor MDA-MB-231 cell line growth inhibition [PI3K];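 also: spheroids exposed to agents for seven days before reading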;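 as to viability, T/C: percent of vehicle control luminescence with DMSO treated spheroids as 100%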
Conditions: for IC50: curve of first compound; for viability, T/C: stronger effect = lower value
Method in brief: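 Targeted small molecules plus PI3K inhibitors, half-log dose series from Cmax (default top 10 microM), were applied to heterotypic spheroids of cancer cells with HUVEC and MSCs. Viability indicated growth inhibition.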

[1] = second compound 0.0316 µM, first compound 0.0316 µM
[2] = second compound 0.0316 µM, first compound 0.1 µM
[3] = second compound 0.0316 µM, first compound 0.316 µM
[4] = second compound 0.0316 µM, first compound 1 µM
[5] = second compound 0.0316 µM, first compound 3.16 µM
[6] = second compound 0.0316 µM, first compound 10 µM
[7] = second compound 0.1 µM, first compound 0.0316 µM
[8] = second compound 0.1 µM, first compound 0.1 µM
[9] = second compound 0.1 µM, first compound 0.316 µM
[10] = second compound 0.1 µM, first compound 1 µM
[11] = second compound 0.1 µM, first compound 3.16 µM
[12] = second compound 0.1 µM, first compound 10 µM
[13] = second compound 0.316 µM, first compound 0.0316 µM
[14] = second compound 0.316 µM, first compound 0.1 µM
[15] = second compound 0.316 µM, first compound 0.316 µM
[16] = second compound 0.316 µM, first compound 1 µM
[17] = second compound 0.316 µM, first compound 3.16 µM
[18] = second compound 0.316 µM, first compound 10 µM
[19] = second compound 1 µM, first compound 0.0316 µM
[20] = second compound 1 µM, first compound 0.1 µM
[21] = second compound 1 µM, first compound 0.316 µM
[22] = second compound 1 µM, first compound 1 µM
[23] = second compound 1 µM, first compound 3.16 µM
[24] = second compound 1 µM, first compound 10 µM

- IC50 (second compound 0.00316 µM): < 0.0316 µM
- IC50 (second compound 0.01 µM): < 0.0316 µM
- IC50 (second compound 0.0316 µM): < 0.0316 µM
- IC50 (second compound 0.1 µM): < 0.0316 µM
- IC50 (second compound 0.316 µM): < 0.0316 µM
- IC50 (second compound 1 µM): < 0.0316 µM
SMILES: CC1(C)CCC(Nc2ncc(C(F)(F)F)c(-c3c[nH]c4c(P(C)(C)=O)c(C#N)ccc34)n2)CN1 (stereo unspecified) + CC(Nc1ccc2c(c1)OCCn1cc(N3C(=O)OCC3C(F)F)nc1-2)C(N)=O
- viability, T/C (second compound 0.00316 µM, first compound 0.0316 µM): 47.2%
- viability, T/C (second compound 0.00316 µM, first compound 0.1 µM): 47.7%
- viability, T/C (second compound 0.00316 µM, first compound 0.316 µM): 42.2%
- viability, T/C (second compound 0.00316 µM, first compound 1 µM): 48.2%
- viability, T/C (second compound 0.00316 µM, first compound 3.16 µM): 47.4%
- viability, T/C (second compound 0.00316 µM, first compound 10 µM): 4.16%
- viability, T/C (second compound 0.01 µM, first compound 0.0316 µM): 48.4%
- viability, T/C (second compound 0.01 µM, first compound 0.1 µM): 44.9%
- viability, T/C (second compound 0.01 µM, first compound 0.316 µM): 44.2%
- viability, T/C (second compound 0.01 µM, first compound 1 µM): 46.7%
- viability, T/C (second compound 0.01 µM, first compound 3.16 µM): 47.5%
- viability, T/C (second compound 0.01 µM, first compound 10 µM): 3.26%
- viability, T/C [1]: 45.1%
- viability, T/C [2]: 42.1%
- viability, T/C [3]: 43.6%
- viability, T/C [4]: 45.2%
- viability, T/C [5]: 42.4%
- viability, T/C [6]: 3.28%
- viability, T/C [7]: 41.9%
- viability, T/C [8]: 39.6%
- viability, T/C [9]: 41.1%
- viability, T/C [10]: 37.8%
- viability, T/C [11]: 36.2%
- viability, T/C [12]: 2.99%
- viability, T/C [13]: 39.8%
- viability, T/C [14]: 38.9%
- viability, T/C [15]: 36.1%
- viability, T/C [16]: 37.4%
- viability, T/C [17]: 34.8%
- viability, T/C [18]: 2.9%
- viability, T/C [19]: 37.8%
- viability, T/C [20]: 36%
- viability, T/C [21]: 33.4%
- viability, T/C [22]: 34.6%
- viability, T/C [23]: 34.9%
- viability, T/C [24]: 2.74%

- IC50 (second compound 0.0316 µM): > 10 µM
- IC50 (second compound 0.1 µM): > 10 µM
- IC50 (second compound 0.316 µM): > 10 µM
- IC50 (second compound 1 µM): > 10 µM
- IC50 (second compound 3.16 µM): > 10 µM
- IC50 (second compound 10 µM): 0.0897 µM
SMILES: CNC(=O)c1ccc(N2C(=S)N(c3ccc(C#N)c(C(F)(F)F)c3)C(=O)C2(C)C)cc1F + CC(Nc1ncnc2nc[nH]c12)c1cc2cccc(Cl)c2c(=O)n1-c1ccccc1
- viability, T/C [1]: 101%
- viability, T/C [2]: 110%
- viability, T/C [3]: 102%
- viability, T/C [4]: 94%
- viability, T/C [5]: 97.5%
- viability, T/C [6]: 70.3%
- viability, T/C [7]: 93%
- viability, T/C [8]: 96%
- viability, T/C [9]: 105%
- viability, T/C [10]: 101%
- viability, T/C [11]: 95.7%
- viability, T/C [12]: 79.9%
- viability, T/C [13]: 89%
- viability, T/C [14]: 96.8%
- viability, T/C [15]: 91.1%
- viability, T/C [16]: 99.2%
- viability, T/C [17]: 85.5%
- viability, T/C [18]: 72.9%
- viability, T/C [19]: 81.2%
- viability, T/C [20]: 84.1%
- viability, T/C [21]: 75.4%
- viability, T/C [22]: 77.2%
- viability, T/C [23]: 76.3%
- viability, T/C [24]: 64.1%
- viability, T/C (second compound 3.16 µM, first compound 0.0316 µM): 61.4%
- viability, T/C (second compound 3.16 µM, first compound 0.1 µM): 59.5%
- viability, T/C (second compound 3.16 µM, first compound 0.316 µM): 63.1%
- viability, T/C (second compound 3.16 µM, first compound 1 µM): 61.4%
- viability, T/C (second compound 3.16 µM, first compound 3.16 µM): 62.3%
- viability, T/C (second compound 3.16 µM, first compound 10 µM): 51%
- viability, T/C (second compound 10 µM, first compound 0.0316 µM): 49.5%
- viability, T/C (second compound 10 µM, first compound 0.1 µM): 51.6%
- viability, T/C (second compound 10 µM, first compound 0.316 µM): 47.3%
- viability, T/C (second compound 10 µM, first compound 1 µM): 49.4%
- viability, T/C (second compound 10 µM, first compound 3.16 µM): 42.3%
- viability, T/C (second compound 10 µM, first compound 10 µM): 39.7%

- IC50 (second compound 0.0316 µM): 0.208 µM
- IC50 (second compound 0.1 µM): 0.17 µM
- IC50 (second compound 0.316 µM): 0.0417 µM
- IC50 (second compound 1 µM): 0.0245 µM
- IC50 (second compound 3.16 µM): < 0.00949 µM
- IC50 (second compound 10 µM): < 0.00949 µM
SMILES: Cn1cnc2c(F)c(Nc3ccc(Br)cc3Cl)c(C(=O)NOCCO)cc21 + CC(Nc1ncnc2nc[nH]c12)c1cc2cccc(Cl)c2c(=O)n1-c1ccccc1
- viability, T/C (second compound 0.0316 µM, first compound 0.00949 µM): 75%
- viability, T/C (second compound 0.0316 µM, first compound 0.03 µM): 63.7%
- viability, T/C (second compound 0.0316 µM, first compound 0.0949 µM): 50.3%
- viability, T/C (second compound 0.0316 µM, first compound 0.3 µM): 50.5%
- viability, T/C (second compound 0.0316 µM, first compound 0.949 µM): 44.5%
- viability, T/C (second compound 0.0316 µM, first compound 3 µM): 31.8%
- viability, T/C (second compound 0.1 µM, first compound 0.00949 µM): 72.2%
- viability, T/C (second compound 0.1 µM, first compound 0.03 µM): 63.9%
- viability, T/C (second compound 0.1 µM, first compound 0.0949 µM): 50.2%
- viability, T/C (second compound 0.1 µM, first compound 0.3 µM): 47.5%
- viability, T/C (second compound 0.1 µM, first compound 0.949 µM): 41.8%
- viability, T/C (second compound 0.1 µM, first compound 3 µM): 30.6%
- viability, T/C (second compound 0.316 µM, first compound 0.00949 µM): 65%
- viability, T/C (second compound 0.316 µM, first compound 0.03 µM): 53%
- viability, T/C (second compound 0.316 µM, first compound 0.0949 µM): 42.3%
- viability, T/C (second compound 0.316 µM, first compound 0.3 µM): 41%
- viability, T/C (second compound 0.316 µM, first compound 0.949 µM): 39.1%
- viability, T/C (second compound 0.316 µM, first compound 3 µM): 34.6%
- viability, T/C (second compound 1 µM, first compound 0.00949 µM): 56.1%
- viability, T/C (second compound 1 µM, first compound 0.03 µM): 50.5%
- viability, T/C (second compound 1 µM, first compound 0.0949 µM): 37.7%
- viability, T/C (second compound 1 µM, first compound 0.3 µM): 39%
- viability, T/C (second compound 1 µM, first compound 0.949 µM): 33.2%
- viability, T/C (second compound 1 µM, first compound 3 µM): 26.8%
- viability, T/C (second compound 3.16 µM, first compound 0.00949 µM): 44.7%
- viability, T/C (second compound 3.16 µM, first compound 0.03 µM): 36.4%
- viability, T/C (second compound 3.16 µM, first compound 0.0949 µM): 28.8%
- viability, T/C (second compound 3.16 µM, first compound 0.3 µM): 27.1%
- viability, T/C (second compound 3.16 µM, first compound 0.949 µM): 26.2%
- viability, T/C (second compound 3.16 µM, first compound 3 µM): 19.8%
- viability, T/C (second compound 10 µM, first compound 0.00949 µM): 32.8%
- viability, T/C (second compound 10 µM, first compound 0.03 µM): 29.2%
- viability, T/C (second compound 10 µM, first compound 0.0949 µM): 21.7%
- viability, T/C (second compound 10 µM, first compound 0.3 µM): 22.6%
- viability, T/C (second compound 10 µM, first compound 0.949 µM): 24%
- viability, T/C (second compound 10 µM, first compound 3 µM): 12.9%
